Results on 19 molecules are retold here after patent publication US20260035365A1, “1H-PYRROLO[3,2-B]PYRIDINE DERIVATIVES AS IRREVERSIBLE INHIBITORS OF MUTANT EGFR FOR THE TREATMENT OF CANCER” (Bayer Aktiengesellschaft, priority 2022, published 2026).

The test system of one assay is BA/F3 (insSVD) cells. Nature of the assay: Ba/F3 cell survival assay (Cell Titer-Glo), EGFR-insSVD. The format is cell-based. As to conditions: Mus musculus, BaF3, 48 h, without IL-3, with EGF. Summed up: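 Viability read by CellTiter-Glo luminescence after 48 h compound exposure at 37° C, 4000 cells/well. Retrovirally transduced, puromycin-selected Ba/F3 lines carrying EGFR-insSVD ± T790M grew IL-3-free with 10 ng/mL EGF for 2 days beforehand; compound delivered by 100 nL pin.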
In general terms: In ATP-based viability assays light output follows the ATP content of the culture.

Assay [1] deals with mutEGFR (D770_N771insSVD) (Homo sapiens, UniProt P00533, INS767SVD). The assay is described as follows: Exon20-mutant-EGFR (D770_N771insSVD) TR-FRET kinase assay. The format is biochemical. As to conditions: 2 mM ATP, 15 min preincubation. Summed up: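 GST-fused human EGFR fragment R669-A1210 carrying the SVD insertion, Sf9-expressed, typically 15 pg/μl, was preincubated with compound for 15 min at 22° C in pH 7.0 Hepes/MgCl2 buffer. Phosphorylation was read by HTRF (665/620 nm ratio), normalised to no-inhibitor and no-enzyme controls.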

Assay [2] concerns the target mutEGFR (D770_N771insNPG, T790). Nature of the assay: mutEGFR (D770_N771insNPG, T790) kinase assay. The format is biochemical, human.
Assay [3] relates to BA/F3 (EGFR D770_N771 insSVD T790M) cells. Nature of the assay: Ba/F3 cell survival assay (Cell Titer-Glo), EGFR-insSVD T790M. The format is cell-based. As to conditions: Ba/F3 EGFR-D770-N771ins_SVD; 48 h, without IL-3, with EGF. How it is done: 293T cells from ATCC were transfected with pBABEpuro expression constructs for WT EGFR or EGFR-insSVD, or EGFR-insSVD T790M, and pCL-Eco packaging vector using Fugene-6 transfection reagent from Promega. Plates were incubated at 37° C. for 48 h. Retrovirus was harvested by filtering the media supernatant through a 0.45 μm filter.
Ba/F3 cells purchased from DSMZ were grown in RPMI+10% FBS+10 ng/mL IL-3 and infected with filtered retroviral supernatant at a 1:2 dilution. Polybrene was added to a concentration of 8 μg/mL, plates were spun for 90 min, and incubated for 16 h at 37° C. 2 μg/mL puromycin was added to the infected cells 24 h after infection and cells were continually grown in the presence of puromycin and 10 ng/mL IL-3. Following stably expressing Ba/F3 cell lines were generated: Ba/F3-EGFR-WT, Ba/F3-EGFR-insSVD, Ba/F3-EGFR-insSVD T790M, (Ba/F3-vector-control).
For cell survival assays, Ba/F3 cells were grown to a density of 1-2 million cells per mL, spun down and resuspended in media without IL-3, and replated at a concentration of 200,000-500,000 cells per mL. The cells ectopically expressing WT EGFR, EGFR-insSVD, or EGFR-insSVD T790M were plated with 10 ng/mL Millipore Culture grade EGF. The cells ectopically expressing pBABEpuro empty vector were plated with 10 ng/mL IL-3.
2 days later, cells were plated in 50 μL in a 384 well plate at a concentration of 4000 cells per well for cells assayed in the absence of IL-3 and 2000 cells per well for cells assayed in the presence of IL-3. 100 nL of compound was added to each well using a 100 nL pin head, and plates were incubated at 37° C. for 48 h.
Cell viability was measured by adding 20 μL of Cell Titer-Glo Luminescent Cell Viability Reagent diluted 1:3 in PBS. Plates were sealed with Perkin Elmer Top-Seal, inverted several times to mix, and immediately centrifuged at 1000 rpm for 2 min. Plates were incubated in low light conditions for 8-10 min and luminescence was measured.

The IC50 is the concentration that gives 50% inhibition. Low readings indicate higher potency, high ones lower potency.

Chain of mutEGFR (D770_N771insSVD) (P00533 with tags, fused parts or gaps INS767SVD limits assumed): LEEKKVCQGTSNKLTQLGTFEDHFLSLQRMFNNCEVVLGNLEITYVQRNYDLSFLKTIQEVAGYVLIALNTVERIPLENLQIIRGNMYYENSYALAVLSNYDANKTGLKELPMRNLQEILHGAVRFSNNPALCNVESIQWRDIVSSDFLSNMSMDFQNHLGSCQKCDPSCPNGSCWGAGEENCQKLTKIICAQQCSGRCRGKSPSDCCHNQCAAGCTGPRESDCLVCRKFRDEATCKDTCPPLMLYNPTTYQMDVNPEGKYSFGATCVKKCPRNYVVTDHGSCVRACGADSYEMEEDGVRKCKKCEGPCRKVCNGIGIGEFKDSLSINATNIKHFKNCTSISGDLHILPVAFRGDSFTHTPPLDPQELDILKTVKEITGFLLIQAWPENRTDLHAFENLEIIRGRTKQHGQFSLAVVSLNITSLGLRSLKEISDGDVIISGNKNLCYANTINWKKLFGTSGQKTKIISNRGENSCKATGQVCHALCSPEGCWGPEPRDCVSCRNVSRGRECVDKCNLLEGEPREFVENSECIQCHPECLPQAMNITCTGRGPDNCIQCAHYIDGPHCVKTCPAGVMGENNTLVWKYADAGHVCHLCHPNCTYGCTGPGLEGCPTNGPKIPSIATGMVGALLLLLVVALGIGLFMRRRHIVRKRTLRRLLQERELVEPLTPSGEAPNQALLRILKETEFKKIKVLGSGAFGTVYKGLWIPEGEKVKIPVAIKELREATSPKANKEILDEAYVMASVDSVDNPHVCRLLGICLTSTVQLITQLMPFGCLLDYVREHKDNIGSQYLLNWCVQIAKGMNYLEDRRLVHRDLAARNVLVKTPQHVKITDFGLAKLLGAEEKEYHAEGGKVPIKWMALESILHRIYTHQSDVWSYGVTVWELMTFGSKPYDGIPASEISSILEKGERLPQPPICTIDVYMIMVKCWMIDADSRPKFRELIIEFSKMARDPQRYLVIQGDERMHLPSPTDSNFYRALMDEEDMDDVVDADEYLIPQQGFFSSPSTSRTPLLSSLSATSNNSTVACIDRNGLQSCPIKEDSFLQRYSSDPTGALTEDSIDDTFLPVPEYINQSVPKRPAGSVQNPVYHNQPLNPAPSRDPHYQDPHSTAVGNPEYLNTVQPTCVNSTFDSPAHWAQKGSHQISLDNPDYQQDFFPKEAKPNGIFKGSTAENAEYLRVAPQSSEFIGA
Chain of mutEGFR (D770_N771insNPG, T790) (P00533 with tags, fused parts or gaps INS770NPG limits assumed): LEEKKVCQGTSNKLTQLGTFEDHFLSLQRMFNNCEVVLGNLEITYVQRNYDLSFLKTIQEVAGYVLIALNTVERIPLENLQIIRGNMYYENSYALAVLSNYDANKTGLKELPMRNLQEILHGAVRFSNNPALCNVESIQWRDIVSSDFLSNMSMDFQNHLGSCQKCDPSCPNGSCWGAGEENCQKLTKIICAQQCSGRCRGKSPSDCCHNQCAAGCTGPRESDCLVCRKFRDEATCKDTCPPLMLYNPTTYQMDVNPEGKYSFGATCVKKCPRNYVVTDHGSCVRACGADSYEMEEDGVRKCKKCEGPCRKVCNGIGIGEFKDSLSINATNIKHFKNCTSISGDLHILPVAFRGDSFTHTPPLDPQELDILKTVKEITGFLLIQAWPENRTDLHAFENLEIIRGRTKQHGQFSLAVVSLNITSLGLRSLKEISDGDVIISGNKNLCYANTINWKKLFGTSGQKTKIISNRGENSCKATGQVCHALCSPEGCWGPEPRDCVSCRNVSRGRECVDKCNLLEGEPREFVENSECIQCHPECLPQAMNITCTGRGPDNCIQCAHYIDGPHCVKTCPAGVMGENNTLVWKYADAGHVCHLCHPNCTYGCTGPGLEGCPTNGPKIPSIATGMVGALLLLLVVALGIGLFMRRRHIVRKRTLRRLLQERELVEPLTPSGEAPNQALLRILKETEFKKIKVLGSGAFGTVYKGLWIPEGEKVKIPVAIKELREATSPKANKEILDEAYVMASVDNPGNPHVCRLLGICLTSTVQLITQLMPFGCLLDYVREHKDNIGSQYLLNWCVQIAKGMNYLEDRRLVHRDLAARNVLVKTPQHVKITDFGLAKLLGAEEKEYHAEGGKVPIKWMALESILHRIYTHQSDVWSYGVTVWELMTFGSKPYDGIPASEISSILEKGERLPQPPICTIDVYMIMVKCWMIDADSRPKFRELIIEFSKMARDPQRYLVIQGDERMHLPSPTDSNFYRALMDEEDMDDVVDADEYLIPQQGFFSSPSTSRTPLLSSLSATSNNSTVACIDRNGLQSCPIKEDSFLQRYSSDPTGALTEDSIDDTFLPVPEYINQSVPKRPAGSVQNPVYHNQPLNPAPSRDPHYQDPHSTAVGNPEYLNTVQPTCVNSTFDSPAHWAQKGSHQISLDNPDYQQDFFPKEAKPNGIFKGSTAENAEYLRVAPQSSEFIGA

In the case of `C=CC(=O)NCCCOc1cnccc1-c1[nH]c2cccnc2c1-c1ccccc1` [Example 5, N-(3-{[4-(3-phenyl-1H-pyrrolo[3,2-b]pyridin-2-yl)pyridin-3-yl]oxy}propyl)prop-2-enamide], the concentration for half-maximal inhibition (IC50) in the assay on BA/F3 (insSVD) cells was 9.98 µM; in assay [1] it was 11300 nM; in assay [2], greater than 20000 nM; in assay [3], 9.98 µM.
Regarding `C=CC(=O)NCCOc1cnccc1-c1[nH]c2cc(F)cnc2c1-c1ccccc1` [Example 6, N-(2-{[4-(6-fluoro-3-phenyl-1H-pyrrolo[3,2-b]pyridin-2-yl)pyridin-3-yl]oxy}ethyl)prop-2-enamide], the IC50 with BA/F3 (insSVD) cells was 7.08 µM; in assay [1], 3850 nM; in assay [2], 5510 nM; in assay [3], 9.98 µM.
For the molecule `C=CC(=O)N(C)CCOc1cnccc1-c1[nH]c2cc(F)cnc2c1-c1ccccc1` [Example 7, N-(2-{[4-(6-fluoro-3-phenyl-1H-pyrrolo[3,2-b]pyridin-2-yl)pyridin-3-yl]oxy}ethyl)-N-methylprop-2-enamide], the IC50 came out at 4.15 µM in the assay on BA/F3 (insSVD) cells, 147 nM in assay [1], 316 nM in assay [2] and 6.99 µM in assay [3].
The like results for `C=CC(=O)N(C)CCOc1cnccc1-c1[nH]c2ccc(OC)nc2c1-c1ccccc1` [Example 8, N-(2-{[4-(5-methoxy-3-phenyl-1H-pyrrolo[3,2-b]pyridin-2-yl)pyridin-3-yl]oxy}ethyl)-N-methylprop-2-enamide] were, in that order, 5.27 µM, 198 nM, 520 nM and 8.93 µM.
On to `C=CC(=O)N(C)CCOc1cnccc1-c1[nH]c2cccnc2c1-c1cccc(C)c1` [Example 9, N-methyl-N-[2-({4-[3-(3-methylphenyl)-1H-pyrrolo[3,2-b]pyridin-2-yl]pyridin-3-yl}oxy)ethyl]prop-2-enamide], for which the IC50 turned out to be 0.293 µM with BA/F3 (insSVD) cells, 6.01 nM in assay [1], 13.5 nM in assay [2] and 8.72 µM in assay [3].
The like results for `C=CC(=O)N(C)CCOc1cnccc1-c1[nH]c2cccnc2c1-c1ccc(Cl)c(C)c1` [Example 10, N-[2-({4-[3-(4-chloro-3-methylphenyl)-1H-pyrrolo[3,2-b]pyridin-2-yl]pyridin-3-yl}oxy)ethyl]-N-methylprop-2-enamide] were, in that order, 2.93 µM, 73.1 nM, 90.6 nM and 9.98 µM.
The like results for `C=CC(=O)N(C)CCOc1cnccc1-c1[nH]c2cccnc2c1-c1ccc(Cl)cc1` [Example 11, N-[2-({4-[3-(4-chlorophenyl)-1H-pyrrolo[3,2-b]pyridin-2-yl]pyridin-3-yl}oxy)ethyl]-N-methylprop-2-enamide] were, in that order, 1.12 µM, 13.4 nM, 46.2 nM and 9.98 µM.
The like results for `C=CC(=O)N(C)CCOc1cnccc1-c1[nH]c2cccnc2c1-c1ccc(F)c(C)c1` [Example 12, N-[2-({4-[3-(4-fluoro-3-methylphenyl)-1H-pyrrolo[3,2-b]pyridin-2-yl]pyridin-3-yl}oxy)ethyl]-N-methylprop-2-enamide] were, in that order, 0.538 µM, 8.68 nM, 14.2 nM and 9.1 µM.
For the molecule `C=CC(=O)N(C)CCOc1cnccc1-c1[nH]c2cccnc2c1-c1ccc(Cl)c(C(=O)OC)c1` [Example 13, Methyl 2-chloro-5-[2-(3-{2-[methyl(prop-2-enoyl)amino]ethoxy}pyridin-4-yl)-1H-pyrrolo[3,2-b]pyridin-3-yl]benzoate], the IC50 in the assay with BA/F3 (insSVD) cells was 6.19 µM; in assay [1] it was 720 nM; in assay [2] it was 1390 nM; in assay [3], 9.98 µM.
In the case of `C=CC(=O)N(C)CCOc1cnccc1-c1[nH]c2cccnc2c1-c1cccc(F)c1` [Example 14, N-[2-({4-[3-(3-fluorophenyl)-1H-pyrrolo[3,2-b]pyridin-2-yl]pyridin-3-yl}oxy)ethyl]-N-methylprop-2-enamide], the IC50 turned out to be 0.833 µM with BA/F3 (insSVD) cells, 16.4 nM in assay [1], 46.3 nM in assay [2] and 9.98 µM in assay [3].
For `C=CC(=O)N(C)CCOc1cnccc1-c1[nH]c2cccnc2c1-c1ccc(Cl)c(OC)c1` [Example 15, N-[2-({4-[3-(4-chloro-3-methoxyphenyl)-1H-pyrrolo[3,2-b]pyridin-2-yl]pyridin-3-yl}oxy)ethyl]-N-methylprop-2-enamide], the IC50 in the assay on BA/F3 (insSVD) cells is 9.24 µM; in assay [1], 1540 nM; in assay [2], 4850 nM; in assay [3], 9.98 µM.
The like results for `C=CC(=O)N(C)CCOc1cnccc1-c1[nH]c2cccnc2c1-c1ccccc1OC` [Example 17, N-[2-({4-[3-(2-methoxyphenyl)-1H-pyrrolo[3,2-b]pyridin-2-yl]pyridin-3-yl}oxy)ethyl]-N-methylprop-2-enamide] were, in that order, 8.16 µM, 569 nM, 1700 nM and 9.98 µM.
As for `C=CC(=O)N(C)CCOc1cnccc1-c1[nH]c2cccnc2c1-c1ccc2cccnc2c1` [Example 18, N-methyl-N-[2-({4-[3-(quinolin-7-yl)-1H-pyrrolo[3,2-b]pyridin-2-yl]pyridin-3-yl}oxy)ethyl]prop-2-enamide], the IC50 was 7.98 µM in the assay with BA/F3 (insSVD) cells, 549 nM in assay [1], 1670 nM in assay [2] and 9.98 µM in assay [3].
`C=CC(=O)N(C)CCOc1cnccc1-c1[nH]c2cccnc2c1-c1cccc(F)c1OC` [Example 19, N-[2-({4-[3-(3-fluoro-2-methoxyphenyl)-1H-pyrrolo[3,2-b]pyridin-2-yl]pyridin-3-yl}oxy)ethyl]-N-methylprop-2-enamide]: the IC50 in the assay with BA/F3 (insSVD) cells is 6.1 µM; in assay [1], 178 nM; in assay [2], 797 nM; in assay [3], 9.98 µM.
Consider `C=CC(=O)N(C)CCOc1cnccc1-c1[nH]c2cccnc2c1-c1ccc(Cl)c(CC)c1` [Example 20, N-[2-({4-[3-(4-chloro-3-ethylphenyl)-1H-pyrrolo[3,2-b]pyridin-2-yl]pyridin-3-yl}oxy)ethyl]-N-methylprop-2-enamide], for which the IC50 is 4.65 µM with BA/F3 (insSVD) cells, 365 nM in assay [1], 779 nM in assay [2] and 8.99 µM in assay [3].
The like results for `C=CC(=O)N(C)CCOc1cnccc1-c1[nH]c2cccnc2c1-c1cccc(Cl)c1OC` [Example 21, N-[2-({4-[3-(3-chloro-2-methoxyphenyl)-1H-pyrrolo[3,2-b]pyridin-2-yl]pyridin-3-yl}oxy)ethyl]-N-methylprop-2-enamide] were, in that order, 4.16 µM, 290 nM, 2260 nM and 9.98 µM.
In the case of `C=CC(=O)N(C)CCOc1cnccc1-c1[nH]c2cccnc2c1-c1cccc(Cl)c1` [Example 22, N-[2-({4-[3-(3-chlorophenyl)-1H-pyrrolo[3,2-b]pyridin-2-yl]pyridin-3-yl}oxy)ethyl]-N-methylprop-2-enamide], the IC50 in the assay with BA/F3 (insSVD) cells came to 0.262 µM; in assay [1], 6.8 nM; in assay [2] it was 12.2 nM; in assay [3], 7.64 µM.
The like results for `C=CC(=O)N(C)CCOc1cnccc1-c1[nH]c2cccnc2c1-c1ccc(Cl)c(Cl)c1` [Example 23, N-[2-({4-[3-(3,4-dichlorophenyl)-1H-pyrrolo[3,2-b]pyridin-2-yl]pyridin-3-yl}oxy)ethyl]-N-methylprop-2-enamide] were, in that order, 2.15 µM, 36.8 nM, 49.3 nM and 8.86 µM.
Turning to `C=CC(=O)N(C)CCOc1cnccc1-c1[nH]c2cccnc2c1-c1ccc(F)c(Cl)c1` [Example 24, N-[2-({4-[3-(3-chloro-4-fluorophenyl)-1H-pyrrolo[3,2-b]pyridin-2-yl]pyridin-3-yl}oxy)ethyl]-N-methylprop-2-enamide], the IC50 is 0.726 µM in the assay on BA/F3 (insSVD) cells, 11.9 nM in assay [1], 20.9 nM in assay [2] and 8.32 µM in assay [3].
